In this experiment the target is Complement factor D (Homo sapiens, UniProt P00746). The experiment is described as follows: Factor D Assay: Human Factor D (purified from human serum, Complement Technology, Inc.) at 80 nM final concentration is incubated with test compound at various concentrations for 5 min at room temperature in 50 mM Tris, 1M NaCl, pH 7.5. A synthetic substrate Z-L-Lys-SBz and DTNB (Ellman's reagent) are added to final concentrations of 100 μM each. Absorbance at 405 nm (A405) is recorded at 30 second intervals for 30 min using a microplate spectrophotometer. IC50 values are calculated by nonlinear regression of complement Factor D reaction rates as a function of test compound concentration.
Sequence of Complement factor D (P00746 whole entry): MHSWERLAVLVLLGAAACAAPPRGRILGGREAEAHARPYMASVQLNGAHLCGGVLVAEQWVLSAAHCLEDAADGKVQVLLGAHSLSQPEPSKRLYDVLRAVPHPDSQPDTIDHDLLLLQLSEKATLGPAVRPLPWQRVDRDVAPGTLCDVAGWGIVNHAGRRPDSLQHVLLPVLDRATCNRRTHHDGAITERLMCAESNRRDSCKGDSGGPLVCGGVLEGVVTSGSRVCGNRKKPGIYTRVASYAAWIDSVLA

Take `CC(=O)c1nn(CC(=O)N2[C@H](C(=O)Nc3cncc(Br)n3)C[C@@]3(C)C[C@@H]23)c2c(C)nc(-c3cnc(C)nc3)cc12`: the IC50 was less than 1000 nM.
Next, `CCCNC(=O)[C@@H]1C[C@@]2(C)C[C@H]2N1C(=O)Cn1nc(C(C)=O)c2cc(-c3cnc(C)nc3)ccc21`: less than 1000 nM; `Cc1ncc(-c2cc(C)c3c(c2)c(C2COC2)nn3CC(=O)N2[C@H](C(=O)Nc3nc(Br)ccc3C)C[C@@]3(C)C[C@@H]23)cn1`: less than 1000 nM; `CC(=O)c1nn(CC(=O)N2[C@H](C(=O)Nc3nc(Br)ccc3C)C[C@@]3(CF)C[C@@H]23)c2cnc(-c3cnc(C)nc3)cc12`: less than 1000 nM.
Consider `CC(=O)c1nn(CC(=O)N2[C@H](C(=O)N[C@@H](C)c3ccccc3)C[C@@]3(C)C[C@@H]23)c2c(C)cc(-c3cnc(C)nc3)cc12`, for which the IC50 was less than 1000 nM.
On to `CC(=O)c1nn(CC(=O)N2[C@H](C(=O)Nc3nc(Br)ccc3C)C[C@@]3(CNCc4ccccc4)C[C@@H]23)c2c(C)cc(-c3cnc(C)nc3)cc12`, for which the half-maximal inhibitory concentration (IC50) is less than 1000 nM.
Consider `CC(=O)c1nn(CC(=O)N2[C@H](C(=O)Nc3nc(Br)ccc3C3COC(C)(C)O3)C[C@@]3(C)C[C@@H]23)c2cnc(-c3cnc(C)nc3)cc12` (stereo partly drawn), for which the half-maximal inhibitory concentration (IC50) is less than 1000 nM.
As to `CC(=O)c1nn(CC(=O)N2[C@H](C(=O)NCCCN)C[C@@]3(C)C[C@@H]23)c2ccc(-c3cnc(C)nc3)cc12`, the IC50 is more than 10000 nM.
Next, `CC(=O)c1nn(CC(=O)N2[C@H](C(=O)Nc3nc(Br)ccc3C)C[C@@]3(C)C[C@@H]23)c2ccc(-c3cnc(O)nc3)cc12`: less than 1000 nM; `CC(=O)c1nn(CC(=O)N2[C@H](C(=O)Nc3nc(Br)ccc3C)C[C@@]3(CC#N)C[C@@H]23)c2cnc(-c3cnc(C)nc3)cc12`: less than 1000 nM.
Regarding `CC(=O)c1nn(CC(=O)N2[C@H](C(=O)NCc3cccnc3)C[C@@]3(C)C[C@@H]23)c2c(C)cc(-c3cnc(C)nc3)cc12`, the IC50 is less than 1000 nM.
As for `CC(=O)c1nn(CC(=O)N2[C@H](C(=O)Nc3nc(Br)ccc3C)C[C@@]3(C)C[C@@H]23)c2ccc(-c3cnc(CN4CCCC(F)(F)C4)nc3)cc12`, the figure is less than 1000 nM.
With `CC(=O)c1nn(CC(=O)N2[C@H](C(=O)Nc3nc(Br)ccc3C)C[C@@]3(CN4CC(O)C4)C[C@@H]23)c2cnc(-c3cnc(C)nc3)cc12`, the half-maximal inhibitory concentration (IC50) was less than 1000 nM.
Consider `CC(=O)c1nn(CC(=O)N2[C@H](C(=O)Nc3cc(C)cc(Br)n3)C[C@@]3(C)C[C@@H]23)c2c(C)nc(-c3cnc(C)nc3)cc12`, for which the IC50 is less than 1000 nM.
`CC(=O)c1nn(CC(=O)N2[C@H](C(=O)Nc3nc(Br)ccc3C)C[C@@]3(CN(C)C)C[C@@H]23)c2cnc(-c3cnc(C)nc3)cc12`: the concentration for half-maximal inhibition (IC50) was less than 1000 nM.
As to `CC(=O)c1nn(CC(=O)N2[C@H](C(=O)Nc3nc(C(F)(F)F)ccc3C)C[C@@]3(C)C[C@@H]23)c2c(C)nc(-c3cnc(C)nc3)cc12`, the IC50 is less than 1000 nM.
Take `CC(=O)c1nn(CC(=O)N2[C@H](C(=O)Nc3cccc(-c4ccccc4Cl)c3F)C[C@@]3(C)C[C@@H]23)c2ccc(-c3cnc(C)nc3)cc12`: the IC50 is less than 1000 nM.
With `CC(=O)c1nn(CC(=O)N2[C@H](C(=O)Nc3nc(Br)ccc3CCCF)C[C@@]3(C)C[C@@H]23)c2cnc(-c3cnc(C)nc3)cc12`, the IC50 is less than 1000 nM.
Next, `CC(=O)c1nn(CC(=O)N2[C@H](C(=O)Nc3nc(Br)ccc3C)C[C@@]3(C)C[C@@H]23)c2ccc(-c3cnc(C)nc3)cc12` [VEMIRCOPAN]: more than 10000 nM; `CCCCCCNC(=O)[C@@H]1C[C@@]2(C)C[C@H]2N1C(=O)Cn1nc(C(C)=O)c2cc(-c3cnc(C)nc3)cc(C)c21`: less than 1000 nM; `CC(=O)c1nn(CC(=O)N2[C@H](C(=O)Nc3nc(Br)ccc3C)C[C@@]3(CNC4=NCCO4)C[C@@H]23)c2cnc(-c3cnc(C)nc3)cc12`: less than 1000 nM.
On to `CC(=O)c1nn(CC(=O)N2[C@H](C(=O)NCC(C)C)C[C@@]3(C)C[C@@H]23)c2c(C)cc(-c3cnc(C)nc3)cc12`, for which the 50% inhibitory concentration (IC50) was less than 1000 nM.
Regarding `CC(=O)c1nn(CC(=O)N2[C@H](C(=O)NCCC3CCCCC3)C[C@@]3(C)C[C@@H]23)c2c(C)cc(-c3cnc(C)nc3)cc12`, the IC50 is less than 1000 nM.
Next, `CC(=O)c1nn(CC(=O)N2[C@H](C(=O)Nc3cccc(Br)n3)C[C@@]3(C)C[C@@H]23)c2c(C)cc(-c3cnc(C)nc3)cc12`: less than 1000 nM.
In the case of `CC(=O)c1nn(CC(=O)N2[C@H](C(=O)N[C@H](C)[C@H]3CC3(Cl)Cl)C[C@@]3(C)C[C@@H]23)c2c(C)cc(-c3cnc(C)nc3)cc12`, the 50% inhibitory concentration (IC50) is less than 1000 nM.
For `CC(=O)c1nn(CC(=O)N2[C@H](C(=O)NCc3cccc(C)c3)C[C@@]3(C)C[C@@H]23)c2c(C)cc(-c3cnc(C)nc3)cc12`, the IC50 is less than 1000 nM.
As for `CC(=O)c1nn(CC(=O)N2[C@H](C(=O)Nc3nc(Br)ccc3C)C[C@@]3(Cn4cc(C5CC5)nn4)C[C@@H]23)c2cnc(-c3cnc(C)nc3)cc12`, the figure is less than 1000 nM; as for `CC(=O)c1nn(CC(=O)N2[C@H](C(=O)Nc3nc(Br)ccc3C)C[C@@]3(CN4CC(O)C4)C[C@@H]23)c2c(C)cc(-c3cnc(C)nc3)cc12`, less than 1000 nM; as for `CC(=O)c1nn(CC(=O)N2[C@H](C(=O)Nc3cncc(Br)n3)C[C@@]3(C)C[C@@H]23)c2cnc(-c3cnc(C)nc3)cc12`, less than 1000 nM.
Next, `CC(=O)c1nn(CC(=O)N2[C@H](C(=O)Nc3nc(Br)ccc3C)C[C@@]3(CNC(=O)C(F)(F)F)C[C@@H]23)c2c(C)cc(-c3cnc(C)nc3)cc12`: less than 1000 nM.
For the compound `CC(=O)c1nn(CC(=O)N2[C@H](C(=O)NCc3ncccn3)C[C@@]3(C)C[C@@H]23)c2c(C)cc(-c3cnc(C)nc3)cc12`, the IC50 is less than 1000 nM.
In the case of `COc1ccc(CNC(=O)[C@@H]2C[C@@]3(C)C[C@H]3N2C(=O)Cn2nc(C(C)=O)c3cc(-c4cnc(C)nc4)cc(C)c32)cc1`, the IC50 was less than 1000 nM.
As for `CC(=O)c1nn(CC(=O)N2[C@H](C(=O)NCc3cccc(F)c3)C[C@@]3(C)C[C@@H]23)c2c(C)cc(-c3cnc(C)nc3)cc12`, the figure is less than 1000 nM.
Next, `CC(=O)c1nn(CC(=O)N2[C@H](C(=O)N[C@@H](C)C(F)=C(C)C)C[C@@]3(C)C[C@@H]23)c2cnc(-c3cnc(C)nc3)cc12`: less than 1000 nM; `C=CCCc1cc(-c2cnc(C)nc2)cc2c(C(C)=O)nn(CC(=O)N3[C@H](C(=O)Nc4nc(Br)ccc4C)C[C@@]4(COCC=C)C[C@@H]34)c12`: less than 1000 nM; `CC(=O)c1nn(CC(=O)N2[C@H](C(=O)Nc3cccc(Br)n3)C[C@@]3(C)C[C@@H]23)c2ccc(-c3cnc(OC4CS(=O)(=O)C4)nc3)cc12`: less than 1000 nM.
Regarding `CC(=O)c1nn(CC(=O)N2[C@H](C(=O)Nc3nc(Br)ccc3C)C[C@@]3(C)C[C@@H]23)c2c(C3CC3)nc(-c3cnc(C)nc3)cc12`, the IC50 was less than 1000 nM.
Next, `Cc1ncc(-c2ccc3c(c2)c(C(=O)NC2CC2)nn3CC(=O)N2[C@H](C(=O)Nc3nc(Br)ccc3C)C[C@@]3(C)C[C@@H]23)cn1`: less than 1000 nM.

Values taken from ChEMBL document CHEMBL5728630, “Aryl, heteroaryl, and heterocyclic pharmaceutical compounds for treatment of medical disorders” (2021).
